The record followed here is the METLIN SMRT retention time set (Domingo-Almenara et al. 2019).

A short description of this data set: gradient 5% acetonitrile 3 min, to 50% in 2 min, to 85% in 15 min, held 3 min, 100 µL/min. To be noted: column: Zorbax Extend-C18 2.1 x 50 mm; eluents: water / acetonitrile, 0.1% formic acid. An outline of the steps: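 Each retention time is based on an adduct peak selected computationally and verified by manual inspection. Measurements used HPLC–quadrupole time-of-flight mass spectrometry in positive and negative ionization mode on mixtures of ~100 pure standards. Chromatography ran on a Zorbax Extend-C18 column (2.1 × 50 mm, 1.8 μm) at 100 μL/min with water and acetonitrile, each containing 0.1% formic acid, and dead and dwell volumes of 40 μL and 900 μL.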
For the molecule `CCCCCCC(=O)OC1CC(C)(C)NC(C)(C)C1`, the RP-LC retention time came out at 707 s.

`Cc1nnc(-c2ccc(S(=O)(=O)N3CCN(c4ccccn4)CC3)o2)o1` came in with an RP-LC retention time of 601 s.

As to `CCOC(=O)c1nc(NCc2cccc(Cl)c2)c2ccccc2n1`, the RP-LC retention time is 833 s.

In turn, `Cn1nccc1C(=O)Nc1c(-c2ccccc2)nc2sc(N3CCCCC3)nn12` showed an RP-LC retention time of 678 s.

`O=C(NCc1ccccn1)C1CCN(c2cc(Oc3ccccc3)ncn2)CC1` gave an RP-LC retention time of 577 s.

As to `O=C(Nc1c(-c2ccccc2)nc2ccccn12)c1ccc2ccccc2c1`, the RP-LC retention time was 720 s.

Regarding `COc1ccc(NC(=O)Nc2nc(CCC(=O)O)cs2)cc1`, the RP-LC retention time is 647 s.

`O=C(Cc1ccsc1)Nc1cnc(-c2ccccc2)nc1`: the RP-LC retention time was found to be 890 s.

Regarding `O=C(COc1ccc(Cl)cc1)N1C[C@H]2C[C@H](C1)[C@H]1CCCC(=O)N1C2`, the RP-LC retention time was 714 s.

Take `Clc1ccccc1-c1nc(-c2ccc(-n3ccnc3)nc2)no1`: the RP-LC retention time amounted to 749 s.

In turn, `Cc1noc(-c2cc(=O)n(CC(=O)Nc3ccccc3Cl)c3ccccc23)n1` displayed an RP-LC retention time of 900 s.

`COC(=O)c1c(C)[nH]c(C(=O)N2CCC(CC(=O)NCc3ccc(OC(C)C)cc3)CC2)c1C`: the RP-LC retention time amounted to 812 s.

The molecule `CCOC(=O)c1ccc(NC(=O)Cn2c(=O)n(-c3ccc(F)cc3)c(=O)c3c2cc(C)n3C)cc1` yielded an RP-LC retention time of 893 s.

For the molecule `O=C(Cn1nc2nc(Nc3ccc(F)cc3)ccn2c1=O)Nc1ccccc1F`, the RP-LC retention time turned out to be 754 s.

`NC(=O)CSc1ccc(-c2ccccn2)nn1` returned an RP-LC retention time of 554 s.

The molecule `CCn1nccc1C(=O)Nc1cnc(N2CCCCCC2)nc1` gave an RP-LC retention time of 834 s.

Consider `CCCCN1C(=O)C(C)(C(=O)NC2CCN(Cc3ccccc3)CC2)Oc2cccnc21` (stereo not given), for which the RP-LC retention time is 694 s.

In turn, `O=C(NC1CCN(c2cc(-c3ccccc3)[nH]n2)C1)c1ccc(Br)cc1` (stereo not given) returned an RP-LC retention time of 752 s.

As to `CC(C)c1nnc2ccc(N3CCOCC3)nn12`, the RP-LC retention time came out at 645 s.

For the molecule `CCOC(=O)c1ccc(NC(=O)c2cn3c4c(ccc(Cl)c4c2=O)OCC3)cc1`, the RP-LC retention time came out at 1040 s.

As for `COc1cccc(-n2c(=O)c(C(=O)Nc3cc(F)ccc3F)c(O)c3cccnc32)c1`, the RP-LC retention time was 1270 s.

Turning to `Cc1cc2nn(CC(=O)NCc3ccccc3)c(=O)n2c(Nc2ccc(C)c(C)c2)n1`, the RP-LC retention time worked out at 1060 s.

On to `Cc1cccc(C)c1NC(=O)Cn1nc2n(c1=O)CCCCC2`, for which the RP-LC retention time was determined as 684 s.

Molecule `O=C(NCc1csc(-c2cccs2)n1)C1CCN(S(=O)(=O)c2cccs2)CC1` came in with an RP-LC retention time of 830 s.

Regarding `CCOc1cccc(CNC(=O)c2sc3ncccc3c2-n2cccc2)c1`, the RP-LC retention time worked out at 1050 s.

`Cc1c(C(=O)N(C)C)sc2nc(-c3ccccc3)c(NC(C)(C)C)n12` came in with an RP-LC retention time of 763 s.

`CNC(=O)C1CCCN(c2nc3ncn(CC(=O)Nc4cc(F)ccc4C)c(=O)c3s2)C1` (stereo not given) returned an RP-LC retention time of 644 s.

`Cc1ccc(-n2nc(N3CCN(C(=O)Nc4cccc(C)c4)CC3)ccc2=O)cc1` came in with an RP-LC retention time of 820 s.

`CCOC(=O)CNC(=O)Cn1c(-c2cccnc2)nc2ccccc21`: the RP-LC retention time was found to be 608 s.

In turn, `CCc1nc(-c2ccc(-c3noc(COc4ccc(OC)cc4)n3)cc2)cs1` showed an RP-LC retention time of 1270 s.

The molecule `CCCc1nc2cccnc2n1C1CCN(C(=O)c2ccc(C)c(N3CCCC3=O)c2)C1` (stereo not given) had an RP-LC retention time of 580 s.

In the case of `CCCN(CC1CCOC1)S(=O)(=O)c1cc(F)ccc1OC` (stereo not given), the RP-LC retention time came out at 868 s.

Molecule `CCN1CCN(C(=O)Cn2cccc2-c2nnc(-c3ccccc3)o2)CC1` registered an RP-LC retention time of 636 s.

As for `Cc1ccc(C)c(S(=O)(=O)N2CC[C@H](n3c(=O)n(C)c4cccnc43)C2)c1`, the RP-LC retention time turned out to be 892 s.

For `CCOC(=O)c1c(S(=O)(=O)N2CCC(C(=O)Nc3cccnc3)CC2)c(C)n(C)c1C`, the RP-LC retention time was 623 s.

As to `Cc1noc(C)c1-c1ccc(S(=O)(=O)N2CCC(C)CC2)cc1`, the RP-LC retention time is 1020 s.

As for `CC(C)c1noc(CC2CCN(C(=O)c3ccsc3)CC2)n1`, the RP-LC retention time came out at 819 s.

`COC(=O)c1cc(S(=O)(=O)N2CCN(c3cccc(C)c3)C(C)C2)c(C)n1C` (stereo not given) showed an RP-LC retention time of 1080 s.

`Cc1ccc(NC(=O)C2CCCN2S(=O)(=O)c2cc3c(cc2C)NC(=O)CO3)cc1F` (stereo not given) had an RP-LC retention time of 808 s.

`Cc1ccn(CC(C)NC(=O)c2cn3ccccc3n2)n1` (stereo not given): the RP-LC retention time is 583 s.

Turning to `Cc1cc(C(=O)N2CCCn3nc(-c4cccs4)cc3C2)no1`, the RP-LC retention time came out at 791 s.

Regarding `CCc1ccc(CNC(=O)CCc2nc(N3CCCC3)c3c(C)noc3n2)cc1`, the RP-LC retention time amounted to 865 s.

`CC(C)c1ccc(-c2noc(N3CCC(C(=O)N4CCOCC4)CC3)n2)cc1` registered an RP-LC retention time of 955 s.

`Cc1cc(C)c(NC(=O)Cn2cc3c(n2)CCCC3)c(C)c1`: the RP-LC retention time was determined as 969 s.

For `O=C(Cn1ccc2ccc(N3CCOCC3)nc21)N1CCN(c2ccccc2Cl)CC1`, the RP-LC retention time stood at 1060 s.

In turn, `CCCC(=O)Nc1cc2c(cc1S(=O)(=O)c1ccc(F)cc1)n(C)c(=O)n2C` gave an RP-LC retention time of 767 s.

Consider `COc1ccc(C)cc1NC(=O)c1nc(-c2cn(Cc3ccc(F)cc3)nn2)no1`, for which the RP-LC retention time worked out at 961 s.

In turn, `Cc1cc(=O)oc2cc(OS(C)(=O)=O)ccc12` came in with an RP-LC retention time of 782 s.

`CCOc1ccc(NS(=O)(=O)c2ccc(-c3nnc(C4CCC4)o3)o2)cc1` registered an RP-LC retention time of 922 s.

`COc1ccc(S(=O)(=O)N2CCC3(CC2)c2nccn2CCN3C)cc1OC` displayed an RP-LC retention time of 610 s.

Consider `Nc1cc(C2CCN(C(=O)c3cccc(F)c3)CC2)no1`, for which the RP-LC retention time was determined as 658 s.

Turning to `CCCS(=O)(=O)N1CCc2ccc(NC(=O)Oc3ccccc3)cc2C1`, the RP-LC retention time turned out to be 878 s.

Molecule `CNCc1ccc(-c2ccc(F)c(Cl)c2)o1` registered an RP-LC retention time of 644 s.

For the molecule `N#Cc1ccc(NS(=O)(=O)c2cccc(-c3nc(-c4ccccc4)no3)c2)cc1`, the RP-LC retention time was 1090 s.

`Cc1cc(C)c2c(N3CCCC3)nc(C(=O)NC(C)c3ccccn3)nc2n1` (stereo not given) had an RP-LC retention time of 586 s.

`O=C(Cc1c(Sc2cccc(F)c2)[nH]c2ccccc12)N1CCN(c2ccccn2)CC1` showed an RP-LC retention time of 699 s.

`O=C(CSc1nnnn1-c1ccccc1)Nc1ncc(Cc2ccccc2Cl)s1` came in with an RP-LC retention time of 946 s.

Consider `O=C(NCCSc1ncc(-c2ccccc2)[nH]1)NCc1cccs1`, for which the RP-LC retention time was 596 s.

`CC(NC(=O)C1CCN(CCc2cn(C)c3ncccc23)CC1)c1ccc(F)cc1` (stereo not given) displayed an RP-LC retention time of 616 s.

For `C=Cc1ccc(CN2CCCN(c3ncccc3-c3nc(CC)no3)CC2)cc1`, the RP-LC retention time was determined as 722 s.
